We go through 15 compounds from US4211773A, “5-Substituted 1-(2'-Deoxy-2'-substituted-β-D-arabinofuranosyl)pyrimidine nucleosides” (Sloan Kettering Institute for Cancer Research, priority 1978, dated 1980).

Data set [1] has as its system herpes simplex virus (HSV). The conditions noted are these: compared with corresponding deoxyuridine analogs; cited from earlier work.
The subject of data set [2] is herpesvirus infected cells. Particulars: cells in which deoxycytidine deaminase is present; cited from earlier work.
Another data set relates to HSV type 1. The conditions noted are these: cited from earlier work.
Another data set has as its system HSV type 2. The conditions noted are these: cited from earlier work.
The subject of another data set is equine herpesvirus. The conditions noted are these: cited from earlier work.
For data set [3], the system named is Herpes Simplex Virus--Type 1 (HSV-1) strain 2931. Nature of the data set: Capacity to suppress HSV-1 replication in monolayers of Vero cells. The conditions noted are these: 24 hr, read-out: Anti-viral Activity (% reduction of HSV1 titer); for activity at 0.01 µg/mL: Human alphaherpesvirus 1, 0.01 μg/ml; for activity at 0.1 µg/mL: Human alphaherpesvirus 1, 0.1 μg/ml; for activity at 1 µg/mL: Human alphaherpesvirus 1, 1.0 μg/ml; for activity at 10 µg/mL: Human alphaherpesvirus 1, 10 μg/ml. It is filed as cell-based. Here is the method:
The capacity of 2'-fluoro-arabinosyl nucleosides (Formulas IV and V shown below) to suppress replication of Herpes Simplex virus-type 1 (HSV-1) in monolayers of Vero cells is shown in Table I.
Vero cell monolayers were infected with approximately 1 plaque forming unit (PFU) per cell of Herpes Simplex Virus--Type 1 (HSV-1) strain 2931 and incubated for 2 hr. Maintenance media containing the various concentrations of drugs were used to overlay the monolayers. Supernatant fluids were collected 24 hr. later and titered on Vero cell monolayers described in Lopez et al, Ann. N.Y. Acad. Sci., 284, 351 (1977). Percent inhibition over controls was calculated.

The next data set concerns L51784. Nature of the data set: Cytotoxicity, inhibition of growth of L51784 cells in vitro. The data set is classed as cell-based. Particulars: 96 h, read-out: Cytoxicity ID50. Here is the method:
(§1) *****Concentration required for 50% inhibition of growth of cells in
(§2) vitro after 96 hrs. incubation at 37° C.

Another data set concerns P815. Kind of data set: Cytotoxicity, inhibition of growth of P815 cells in vitro. The data set is classed as cell-based. Particulars: Mus musculus, 96 hrs. incubation at 37° C., read-out: Cytoxicity ID50. As for the experimental part:
as §1, §2

The subject of another data set is several DNA virus. The conditions noted are these: cell culture; cited from earlier work.
The test system of another data set is herpes infections. The conditions noted are these: therapeutic trials in herpes infections; cited from earlier work.
For another data set, the system named is anti-viral. Particulars: cited from earlier work.

Converted amounts (≈) assume the structure as drawn.

With `Nc1nc(=O)n([C@H]2C[C@H](O)[C@@H](CO)O2)cc1Br` [5-Bromo-2'-deoxycytidine], the “inhibition of HSV replication” value in [1] is listed as “as effectively as their corresponding deoxyuridine analogs”.
Turning to `Cc1cn([C@@H]2O[C@H](CO)[C@@H](O)[C@@H]2O)c(=O)nc1N` [5-Methyl-ara-C], in data set [2], the “activity against herpesvirus infected cells” value is reported as “active”.
On to `Nc1nc(=O)n([C@H]2C[C@H](O)[C@@H](CO)O2)cc1I` [5-iodo-2'-deoxycytidine], for which, in data set [1], the “inhibition of HSV replication” value was “as effectively as their corresponding deoxyuridine analogs”.
Consider `Cc1cn([C@@H]2O[C@H](CO)[C@@H](O)[C@@H]2O)c(=O)[nH]c1=O` [Ara-T], for which, in the data set with HSV type 1, the “activity against HSV type 1” value is “active”. Also, the “activity against HSV type 2” value in the data set with HSV type 2 is recorded as “active”. For the same compound, in the data set on equine herpesvirus, the “activity against equine herpesvirus” value is “active”.
`Nc1ccn([C@@H]2O[C@H](CO)[C@@H](O)[C@@H]2F)c(=O)n1` [IVa, 1-(2-deoxy-2-fluoro-β-D-arabinofuranosyl)cytosine, reference compound]: in [3], the activity at 0.01 µg/mL was < 90%, the activity at 0.1 µg/mL is 90 to 99%, the activity at 1 µg/mL lay within 90 to 99% and the activity at 10 µg/mL fell in the range of 99.9 to 100%. Moreover, the activity at 100 µg/mL in data set [3] (Human alphaherpesvirus 1, 100 μg/ml) is 100%. Also, the IC50 in the data set with L51784 was 0.05 µg/mL (≈ 0.204 µM). Besides, the IC50 in the data set with P815 is 0.05 µg/mL (≈ 0.204 µM).
For the compound `Nc1nc(=O)n([C@@H]2O[C@H](CO)[C@@H](O)[C@@H]2F)cc1F` [IVb, 1-(2-deoxy-2-fluoro-β-D-arabinofuranosyl)-5-fluorocytosine], in data set [3], the activity at 0.01 µg/mL is < 90%, the activity at 0.1 µg/mL was in the range of 90 to 99%, the activity at 1 µg/mL fell in the range of 99 to 99.9% and the activity at 10 µg/mL is 99.9 to 100%. Also, in the data set with L51784, the IC50 came to 0.5 µg/mL (≈ 1.9 µM). Further, the IC50 in the data set on P815 turned out to be 0.4 µg/mL (≈ 1.52 µM).
Take `Nc1nc(=O)n([C@@H]2O[C@H](CO)[C@@H](O)[C@@H]2F)cc1Cl` [IVc, 1-(2-deoxy-2-fluoro-β-D-arabinofuranosyl)-5-chlorocytosine]: in data set [3], the activity at 0.01 µg/mL is < 90%, the activity at 0.1 µg/mL is < 90%, the activity at 1 µg/mL is < 90% and the activity at 10 µg/mL is 99.9 to 100%. The IC50 with L51784 was found to be 1.4 µg/mL (≈ 5.01 µM). For the same compound, in the data set on P815, the IC50 was ~1 µg/mL (≈ 3.58 µM).
Turning to `Nc1nc(=O)n([C@@H]2O[C@H](CO)[C@@H](O)[C@@H]2F)cc1Br` [IVd, 1-(2-deoxy-2-fluoro-β-D-arabinofuranosyl)-5-bromocytosine], in data set [3], the activity at 0.01 µg/mL is < 90%, the activity at 0.1 µg/mL was in the range of 90 to 99%, the activity at 1 µg/mL fell in the range of 99 to 99.9% and the activity at 10 µg/mL was found to be 100%. In addition, the IC50 in the data set with L51784 is ~10 µg/mL (≈ 30.9 µM). Also, in the data set on P815, the IC50 is > 10 µg/mL.
On to `O=c1ccn([C@@H]2O[C@H](CO)[C@@H](O)[C@@H]2F)c(=O)[nH]1` [Va], for which, in [3], the activity at 0.01 µg/mL is < 90%, the activity at 0.1 µg/mL is < 90%, the activity at 1 µg/mL was in the range of 99 to 99.9% and the activity at 10 µg/mL is 99 to 99.9%. For the same compound, the IC50 in the data set on L51784 is > 10 µg/mL. Further, in the data set on P815, the IC50 was > 10 µg/mL.
For the compound `O=c1[nH]c(=O)n([C@@H]2O[C@H](CO)[C@@H](O)[C@@H]2F)cc1F` [Vb, 1-(2-deoxy-2-fluoro-β-D-arabinofuranosyl)-5-fluorouracil], in data set [3], the activity at 0.01 µg/mL is < 90%, the activity at 0.1 µg/mL was 99 to 99.9%, the activity at 1 µg/mL was determined as 100% and the activity at 10 µg/mL was 100%. Besides, the IC50 in the data set with L51784 was 1 µg/mL (≈ 3.79 µM). Further, in the data set on P815, the IC50 is 0.7 µg/mL (≈ 2.65 µM).
As for `O=c1[nH]c(=O)n([C@@H]2O[C@H](CO)[C@@H](O)[C@@H]2F)cc1Cl` [Vc, 1-(2-deoxy-2-fluoro-β-D-arabinofuranosyl)-5-chlorouracil], in [3], the activity at 0.01 µg/mL was < 90%, the activity at 0.1 µg/mL is < 90%, the activity at 1 µg/mL is < 90% and the activity at 10 µg/mL turned out to be 100%. In addition, in the data set with L51784, the IC50 is 1.4 µg/mL (≈ 4.99 µM). In the data set with P815, the IC50 stood at 3.4 µg/mL (≈ 12.1 µM).
As for `O=c1[nH]c(=O)n([C@@H]2O[C@H](CO)[C@@H](O)[C@@H]2F)cc1Br` [Vd, 1-(2-deoxy-2-fluoro-β-D-arabinofuranosyl)-5-bromouracil], in [3], the activity at 0.01 µg/mL was < 90%, the activity at 0.1 µg/mL is < 90%, the activity at 1 µg/mL lay within 99 to 99.9% and the activity at 10 µg/mL was determined as 100%. For the same compound, the IC50 with L51784 stood at 0.9 µg/mL (≈ 2.77 µM). Further, in the data set on P815, the IC50 came to 1.6 µg/mL (≈ 4.92 µM).
Turning to `O=c1[nH]c(=O)n([C@@H]2O[C@H](CO)[C@@H](O)[C@@H]2F)cc1I` [Ve, 1-(2-deoxy-2-fluoro-β-D-arabinofuranosyl)-5-iodouracil], in data set [3], the activity at 0.01 µg/mL is < 90%, the activity at 0.1 µg/mL was in the range of 90 to 99%, the activity at 1 µg/mL was 99.9 to 100% and the activity at 10 µg/mL stood at 100%. Besides, the IC50 in the data set with L51784 worked out at 0.9 µg/mL (≈ 2.42 µM). Besides, in the data set on P815, the IC50 stood at 0.8 µg/mL (≈ 2.15 µM).
`Nc1ccn([C@@H]2O[C@H](CO)[C@@H](O)[C@@H]2O)c(=O)n1` [ara-C, 1-β-D-Arabinofuranosylcytosine]: the “inhibition of multiplication of several DNA virus” value in the data set with several DNA virus is on record as “inhibits the multiplication of several DNA virus in cell culture”. In the data set on herpes infections, the “therapeutic to toxic ratio” value is listed as “unity”.
For the compound `O=c1ccn([C@@H]2O[C@H](CO)[C@@H](O)[C@@H]2O)c(=O)[nH]1` [ara-U, 1-β-D-arabinofuranosyluracil], in the data set on anti-viral, the anti-viral activity entry is recorded as “devoid of anti-viral or anti-cancer activity”.
